The record followed here is patent publication US20260091082A1, “CYCLIC PEPTIDE DERIVATIVE COMPOSITION FOR TREATING OR PREVENTING EYE DISEASE” (DKS Co. Ltd., priority 2022, published 2026).

Values joined by “and” are separate entries in the source; they are usually repeats but may differ in a detail not shown here. Equal values may be shown once.

A short description of data set [1]: General condition observation (clinical signs) in anterior chamber aqueous humor pressure load rat model. The format is in vivo, Rat; Slc: SD. On the set-up: key: —: No anormal sign. To be noted: 10 mg/mL intravenous, once about 30 minutes before ischemic load, animals 401-410 (test group 4), per animal. As for the experimental part: (§1) • Species and strains: Rat; Slc: SD • Number of animals on arrival and sex: 50 males • Age in weeks at arrival: 6 weeks old • Body weight range at arrival: 147.2 to 170.0 g • Source: Japan SLC, Inc.
The body weight of the animals was measured at a frequency of once a week or more, and the general condition observation was performed every day.
(§2) • Administration route: Eyedrop administration, intravenous administration • Administration method (eyedrop): Eyedrop administration was performed on a treated eye (right eye) of a rat using a micropipette 4 times a day (at intervals of 1.5 hours or more). • Administration method (intravenous): The amount of administration solution, calculated from the body weight on the day of administration, was administered from the tail vein using a syringe and an injection needle about 30 minutes before ischemic load. • Time of administration: Administration was performed according to the following schedule.

In data set [2] the test system is anterior chamber aqueous humor pressure load rat model. As to the kind of experiment: Retinal thickness (IPL, INL, ONL) in retinal damage model induced by anterior chamber aqueous humor pressure load. Type of data set: in vivo, Rat; Slc: SD. The conditions noted are these: 10 mg/mL intravenous, right eye. Here is the method:
• Name: Compound 9 • Source: Synthesized in the above Examples • Used amount: 0.4 mL (50 mg/mL solution) • Storage conditions: Freezing, light shielding
Method for preparing test substance (1 mg/mL): A high concentration solution prepared at 50 mg/mL was diluted 50 times with a medium to prepare a 1 mg/mL administration solution.
• Name: MK-801 • Distributor: SIGMA-ALDRICH • Use amount: 0.0501 g • Storage condition: refrigerated (2° C. to 8° C.)
Method for preparing positive control substance (10 mg/mL): 0.0501 g was weighed out and made up to a total volume of 5 mL with a control substance (physiological saline).
as §1
Grouping was performed two days before the first creation of the retinal damage model induced by an anterior chamber aqueous humor pressure load. Using the daily body weight as an index, stratified random allocation was performed using SAS (Ver. 9.3, SAS Institute Japan Ltd.) and EXSUS (Ver. 8.0, CAC Croit Corporation) so that an average value of the body weights of each group was approximately uniform.
as §2
1. 10 mg/kg xylazine hydrochloride was intramuscularly administered on the model creation day (day 0). A rat was placed in an anesthesia box and subjected to general anesthesia with isoflurane (5%, oxygen:nitrous oxide=1:3). When anesthesia was effective, the rat was taken out of the anesthesia box, an inhalation anesthetic mask was worn, and anesthesia was maintained with isoflurane (1% to 5%, oxygen nitrous oxide=1:3).
2. The body temperature was maintained at 37° C. with a warming mat, and a mydrin P ophthalmic solution was instilled in the right eye (treated eye) of the rat to dilate the pupil, then the cravit ophthalmic solution 1.5% (Santen Pharmaceutical Co., Ltd.) was instilled.
3. A bottle of an IV bag containing physiological saline was previously suspended so that a water surface was 155 cm (100 mmHg or more) higher than the eye of the rat. The IV bag was connected to a pediatric infusion set (Terumo Corporation), a 27 G injection needle thereof was inserted into and fixed to the anterior chamber while slightly dripping the liquid from a needle tip. The model was created in the light phase (6:00 to 18:00) in consideration of the diurnal variation of the intraocular pressure.
4. After the needle was inserted into the anterior chamber, pressure (100 mmHg or more) was loaded and maintained in the anterior chamber by associating the reflux system.
5. After an ischemic load for 45 minutes, the injection needle and the like were removed, the inhalation anesthetic mask was removed, and the rat was sufficiently woken up under a warming mat, and then returned to the cage.
6. For 2 days after surgery, 10 mg/kg xylazine hydrochloride was intramuscularly administered as an analgesic for the purpose of alleviating the pain after the treatment.
1. Fourteen days after model creation, general anesthesia was performed with isoflurane (5%, oxygen:nitrous oxide=1:3), euthanasia was then performed by exsanguination, a suture was placed as a marker at the 12 o'clock position of the ocular conjunctiva, and eyeball enucleation was performed.
2. […]

The mark [3] stands for this setting: 300 μm from optic disk, individual measurements per animal.
[4] abbreviates: 300 μm from optic disk, mean per animal.

In the case of `C[C@]12N[C@H](Cc3ccccc31)c1ccccc12` [MK-801, reference compound], the Clinical signs entry in data set [1] (Day 0), in data set [1] (Day 1), in data set [1] (Day 2), in data set [1] (Day 3), in data set [1] (Day 4) and in data set [1] (Day 5) was “—” in each case. Also, the Clinical signs result in data set [1] (Day 6), in data set [1] (Day 7), in data set [1] (Day 8), in data set [1] (Day 9), in data set [1] (Day 10) and in data set [1] (Day 11) was “—” throughout. In addition, the Clinical signs result in data set [1] (Day 12), in data set [1] (Day 13), in data set [1] (Day 14 (day of necropsy)), in data set [1] (Day −1) and in data set [1] (Day −2) was “—” in each case. The “Thickness of INL (μm), Distance from Optic Disk 300 μm” value in data set [2] (setting [3]) is 43.354 μm and 38.856 μm and 38.516 μm and 27.422 μm (2×) and 28.629 μm and 30.645 μm and 26.920 μm and 25.120 μm and 24.650 μm and 35.504 μm and 33.881 μm and 32.856 μm and 27.965 μm and 24.925 μm and 25.788 μm and 20.485 μm and 25.262 μm and 25.607 μm and 23.821 μm and 27.016 μm and 25.835 μm and 27.670 μm and 26.395 μm and 24.758 μm and 25.159 μm and 24.873 μm and 35.703 μm and 32.278 μm and 31.627 μm. Moreover, the “Thickness of IPL (μm), Distance from Optic Disk 300 μm” value in data set [2] (setting [3]) was 47.608 μm and 50.434 μm and 48.521 μm and 38.326 μm and 39.132 μm and 40.728 μm and 36.614 μm and 38.136 μm and 36.780 μm and 37.923 μm and 37.097 μm and 36.446 μm and 38.879 μm and 37.066 μm and 37.189 μm and 34.034 μm and 34.084 μm and 33.182 μm and 34.736 μm and 31.462 μm and 32.671 μm and 35.348 μm and 37.744 μm and 37.108 μm and 43.612 μm and 37.515 μm and 38.865 μm and 37.237 μm and 35.429 μm and 37.489 μm. The “Thickness of INL (μm), Distance from Optic Disk 300 μm, Mean” value in data set [2] (setting [4]) is 40.242 μm and 28.899 μm and 25.563 μm and 34.080 μm and 26.226 μm and 23.785 μm and 25.557 μm and 27.162 μm and 24.930 μm and 33.203 μm. Further, in data set [2] (setting [4]), the “Thickness of IPL (μm), Distance from Optic Disk 300 μm, Mean” value is 48.854 μm and 39.395 μm and 37.177 μm and 37.155 μm and 37.711 μm and 33.767 μm and 32.956 μm and 36.733 μm and 39.997 μm and 36.718 μm. In addition, the “Thickness of INL (μm), Distance from Optic Disk 600 μm” value in data set [2] (600 μm from optic disk, individual measurements per animal) is 38.743 μm and 36.612 μm and 29.504 μm and 25.885 μm and 27.808 μm and 31.247 μm and 41.632 μm and 47.024 μm and 32.661 μm and 30.741 μm and 27.960 μm and 28.852 μm and 19.795 μm and 16.209 μm and 32.381 μm and 32.162 μm and 24.755 μm and 25.923 μm (2×) and 32.268 μm and 39.011 μm and 36.780 μm and 28.629 μm and 32.351 μm and 44.795 μm and 30.775 μm and 27.268 μm and 20.418 μm and 31.364 μm and 35.532 μm.
